Laboratory results reported in US9278107B2, “Antibacterial agent composition and antiviral agent composition comprising silicon-containing compound; antibacterializing method, cleaning/mouth rinsing method; method for fixing antibacterial agent and antiviral agent” (Hiroshima University, priority 2008, dated 2016).

Experiments:
[1] = test system: Escherichia coli WP2uvrA and Salmonella typhimurium TA series strains (TA100, TA1535, TA98 and TA1537); details: positive control
[2] = test system: influenza virus A A/swan/Shimane/499/83(H5N3); type: cell-based, influenza virus A (avian); details: reacted with virus at room temperature for 3 minutes, diluted with DMEM, MDCK(+) cells, TCID50; (20 ppm)
[3] = test system: atypical (swine) influenza virus (type H1N1); type: cell-based

| SMILES | number of reverse mutant colonies as compared with negative control [1] | EtAC dilution at which it is still effective [2] | virus inactivating effect [3] |
| --- | --- | --- | --- |
| NC(=O)C(=Cc1ccc([N+](=O)[O-])o1)c1ccco1 [2-(2-furyl)-3-(5-nitro-2-furyl)acrylamide] | remarkable increase |  |  |
| Cl.Nc1c2ccccc2nc2ccccc12 [9-Aminoacridine hydrochloride] | remarkable increase |  |  |
| CCCCCCCCCCCCCCCCCC[N+](C)(C)CCC[Si](OCC)(OCC)OCC.[Cl-] [EtAC, octadecyldimethyl(3-triethoxysilylpropyl)ammonium chloride] |  | 0.002% | highly significant effects are found |
| [N-]=[N+]=[N-] [sodium azide] | remarkable increase |  |  |
